tested on: interleukin-1; test: not given; conditions: in vitro and in vivo; cited from earlier work

In the case of `NC(=O)N1C(=O)C(=C(O)c2cccs2)c2cc(Cl)ccc21` [CP 66,248], the “inhibition of interleukin-1 levels (in words)” value is given as “could inhibit interleukin-1 levels in vitro and in vivo”.

tested on: C-reactive protein; test: not given; conditions: rheumatoid arthritis patients; cited from earlier work

For `NC(=O)N1C(=O)C(=C(O)c2cccs2)c2cc(Cl)ccc21` [CP 66,248], the “C-reactive protein levels (in words)” value is listed as “reduction of C-reactive protein levels”.

tested on: Lewis strain laboratory rats; test: In vivo alleviation of inflammation: polyarthritis (adjuvant, Mycobacterium butyricum) in rats, inhibition of paw volume increase; conditions: Rattus norvegicus, po, rat; read-out: ED50 (effective dose to obtain a 50% inhibition of inflammation)
Description: Polyarthritis was induced in Lewis strain laboratory rats (weight=about 200 grams) by injection of a suspension of Mycobacterium butyricum in mineral oil into the subplantar tissue of the mammal's hind paws. On day 10 after the injection, the rats were assigned to groups, and paw volumes and body weights were recorded. Paw volumes of the contralateral, uninjected hind paw were determined by mercury plethylsmography. Per oral (p.o.) dosing began and continued for five consecutive days thereafter. On day 14 after the initial injection, approximately four hours after the final dose was administered, paw volumes and body weights were recorded and quantitated.
Anti-inflammatory activity of the substituted pyrazole compounds is expressed as the percent inhibition of paw volume increase.

First: COc1ccc(-n2nc(CCC(=O)N(C)OC(=O)CCC(=O)O)cc2-c2ccc(C)cc2)cc1 [Compound 130]
Second: COc1ccc(-n2nc(CCC(=O)N(C)OC(=O)CCl)cc2-c2ccc(Cl)cc2)cc1 [Compound 139, 3-[5-(4-Chlorophenyl)-1-(4-methoxyphenyl)-3-pyrazolyl]N-chloroacetyloxy-N-methylpropanamide]
The ED50 of the first is 1.9-fold higher: 11.5 mg/kg for the first, 6 mg/kg for the second.

Compared with `COc1ccc(-n2nc(CCC(=O)N(C)OC(=O)CN(C)C)cc2-c2ccc(Cl)cc2)cc1` [Compound 134, 3-[5-(4-Chlorophenyl)-1-(4-methoxyphenyl)-3-pyrazolyl]-N',N'-dimethylglycinyloxy-N-methylpropanamide], `COc1ccc(-n2nc(CCCN(O)C(=O)C(=O)NO)cc2-c2ccc(Cl)cc2)cc1` [Compound 158, N-[3-[5-(4-Chlorophenyl)-1-(4-methoxyphenyl)-3-pyrazolyl]propyl]-N,N'-dihydroxyoxamide] is 2.7-fold higher in ED50: 12.5 mg/kg for the first, 33.4 mg/kg for the second.

same assay, conditions: po, 336 h; 9 mpk p.o., rat; read-out: % INH. p.o. (percentage inhibition of pad swelling)

`COc1ccc(-n2nc(CCCN(O)S(C)(=O)=O)cc2-c2ccc(Cl)cc2)cc1` [Compound 156] gave an inhibition in vivo at 9 mg/kg of 34%.

same assay, conditions: po, 336 h; 10 mpk p.o., rat; read-out: % INH. p.o. (percentage inhibition of pad swelling)

First: COc1ccc(-c2cc(CCC(=O)N(C)O)nn2-c2ccc(OC)cc2)cc1 [Compound 113]
Second: CCc1ccc(-c2cc(CCC(=O)N(C)O)nn2-c2ccc(OC)cc2)cc1 [Compound 119]
The inhibition in vivo at 10 mg/kg of the first is higher: 34% for the first, 24% for the second.

Compared with `COc1ccc(-n2nc(CCC(=O)N(C)O)cc2-c2cccc(C)c2)cc1` [Compound 115], `COc1ccc(-n2nc(CCC(=O)N(C)O)cc2-c2ccccc2C)cc1` [Compound 118] is lower in inhibition in vivo at 10 mg/kg: 35% for the first, 6% for the second.

Compared with `COc1ccc(-n2nc(CCC(=O)N(C)OC(=O)CCCC(=O)O)cc2-c2ccc(Cl)cc2)cc1` [Compound 132], `CCN(CC)C(=O)CCC(=O)ON(C)C(=O)CCc1cc(-c2ccc(Cl)cc2)n(-c2ccc(OC)cc2)n1` [Compound 137] is higher in inhibition in vivo at 10 mg/kg: 30% for the first, 54% for the second.

Compared with `COc1ccc(-n2nc(CCC(=O)N(C)OC(=O)CCC(=O)N3CCOCC3)cc2-c2ccc(Cl)cc2)cc1` [Compound 136], `COCC(=O)ON(C)C(=O)CCc1cc(-c2ccc(Cl)cc2)n(-c2ccc(OC)cc2)n1` [Compound 142] is higher in inhibition in vivo at 10 mg/kg: 38% for the first, 67% for the second.

First: COc1ccc(-n2nc(CCC(=O)N(C)OC(=O)C(C)(C)C)cc2-c2ccc(Cl)cc2)cc1 [Compound 141]
Second: COc1ccc(-n2nc(CCC(=O)N(O)C(C)=O)cc2-c2ccc(Cl)cc2)cc1 [Compound 171, N-Acetyl-3-[5-(4-chlorophenyl)-1-(4-methoxyphenyl)-3-pyrazolyl]-N-hydroxy-propanamide]
The inhibition in vivo at 10 mg/kg of the first is lower: 17% for the first, 62% for the second.

Going from `CCOC(=O)C(C)N(O)C(=O)CCc1cc(-c2ccc(Cl)cc2)n(-c2ccc(OC)cc2)n1` (stereo not shown) [Compound 144] to `COc1ccc(-n2nc(CCC(=O)N(O)C(C)C(=O)O)cc2-c2ccc(Cl)cc2)cc1` (stereo not shown) [Compound 145], the inhibition in vivo at 10 mg/kg rises from 55% to 61%.

Compared with `CCCCCCCCN(O)C(=O)CCc1cc(-c2ccc(Cl)cc2)n(-c2ccc(OC)cc2)n1` [Compound 146], `CCCCCCCC(=O)N(O)CCCc1cc(-c2ccc(Cl)cc2)n(-c2ccc(OC)cc2)n1` [Compound 154] is lower in inhibition in vivo at 10 mg/kg: 29% for the first, 11% for the second.

Going from `COc1ccc(-n2nc(CCCN(O)C(C)=O)cc2-c2ccc(Cl)cc2)cc1` [Compound 152, N-[3-[5-(4-Chlorophenyl)-1-(4-methoxyphenyl)-3-pyrazolyl]propyl]-N-hydroxy-acetamide] to `COc1ccc(-n2nc(CCCN(O)C(=O)C(C)(C)C)cc2-c2ccc(Cl)cc2)cc1` [Compound 153], the inhibition in vivo at 10 mg/kg rises from 40% to 49%.

Compared with `COc1ccc(-n2nc(CCCN(O)C(=O)c3ccccc3)cc2-c2ccc(Cl)cc2)cc1` [Compound 155], `CCOC(=O)C(=O)N(O)CCCc1cc(-c2ccc(Cl)cc2)n(-c2ccc(OC)cc2)n1` [Compound 157, Ethyl N-[3-[5-(4-chlorophenyl)-1-(4-methoxyphenyl)-3-pyrazolyl]-propyl]-hydroxyoxamate] is higher in inhibition in vivo at 10 mg/kg: 45% for the first, 51% for the second.

Going from `CCC(CCc1cc(-c2ccc(Cl)cc2)n(-c2ccc(OC)cc2)n1)=NNc1nccs1` [Compound 175] to `COc1ccc(-n2nc(CCC(O)C(C)(C)C)cc2-c2ccc(Cl)cc2)cc1` (stereo not shown) [Compound 179], the inhibition in vivo at 10 mg/kg rises from 16% to 36%.

With `CCCCCCCCNC(=O)CCc1cc(-c2ccc(Cl)cc2)n(-c2ccc(OC)cc2)n1` [Compound 186] the inhibition in vivo at 10 mg/kg was 37%.

same assay, conditions: po, 336 h; 15 mpk p.o., rat; read-out: % INH. p.o. (percentage inhibition of pad swelling)

`COc1ccc(-n2nc(CCC(=O)N(C)O)cc2-c2ccccc2)cc1` [Compound 114] and `COc1ccc(-n2nc(CCC(=N)N(C)O)cc2-c2ccc(Cl)cc2)cc1` [Compound 185, N-Hydroxy-N-methyl-2-[5-(4-chlorophenyl)-1-(4-methoxyphenyl)-3-pyrazolyl]ethylcarboximidamide Monohydrate] are the same in inhibition in vivo at 15 mg/kg: 5% for the first, 5% for the second.

First: COc1ccc(-n2nc(CCC(=O)N(C)OC(C)=O)cc2-c2ccc(Cl)cc2)cc1 [Compound 140]
Second: COc1ccc(-n2nc(CCC(=O)N(OC(C)=O)C(C)=O)cc2-c2ccc(Cl)cc2)cc1 [Compound 172, N-Acetyl-N-acetoxy-[5-(4-chlorophenyl)-1-(4-methoxyphenyl)-3-pyrazolyl]-propanamide]
The inhibition in vivo at 15 mg/kg of the first is lower: 77% for the first, 83% for the second.

Going from `COc1ccc(-n2nc(CCC(=O)O)c(Br)c2-c2ccc(Cl)cc2)cc1` [Compound 147, 3-[4-Bromo-5-(4-Chlorophenyl)-1-(4-methoxyphenyl)-3-pyrazolyl]-propionic acid] to `COc1ccc(-n2nc(CCC(=O)NO)c(Br)c2-c2ccc(Cl)cc2)cc1` [Compound 150], the inhibition in vivo at 15 mg/kg falls from 79% to 70%.

Going from `COc1ccc(-n2nc(CCC(=O)N(C)O)c(Cl)c2-c2ccc(Cl)cc2)cc1` [Compound 149] to `COc1ccc(-n2nc(CCC(=O)O)c(Cl)c2-c2ccc(Cl)cc2)cc1` [Compound 182], the inhibition in vivo at 15 mg/kg rises from 68% to 71%.

Going from `CCOC(=O)C(=O)NCCc1cc(-c2ccc(Cl)cc2)n(-c2ccc(OC)cc2)n1` [Compound 160, Ethyl 2-[5-(4-chlorophenyl)-1-(4-methoxyphenyl)-3-pyrazolyl]-ethylamine-N-oxoacetate] to `COc1ccc(-n2nc(CCNC(=O)C(=O)N(C)O)cc2-c2ccc(Cl)cc2)cc1` [Compound 163], the inhibition in vivo at 15 mg/kg rises from 9% to 28%.

Compared with `COc1ccc(-n2nc(CCCNC(=O)C(=O)NO)cc2-c2ccc(Cl)cc2)cc1` [Compound 164], `COc1ccc(-n2nc(CCNC(=O)C(=O)NO)cc2-c2ccc(Cl)cc2)cc1` [Compound 165] is higher in inhibition in vivo at 15 mg/kg: 13% for the first, 41% for the second.

First: COc1ccc(-n2nc(CCC(C)=NNc3nccs3)cc2-c2ccc(Cl)cc2)cc1 [Compound 173, 5-(4-Chlorophenyl)-1-(4-methoxyphenyl)-3-(3-oxobutyl)pyrazole thiazol-2-yl hydrazone]
Second: COc1ccc(-n2nc(CCC=NNc3nccs3)cc2-c2ccc(Cl)cc2)cc1 [Compound 174]
The inhibition in vivo at 15 mg/kg of the first is higher: 39% for the first, 37% for the second.

First: COc1ccc(-n2nc(CCC(=NNc3nccs3)c3ccccc3)cc2-c2ccc(Cl)cc2)cc1 [Compound 176]
Second: COc1ccc(-n2nc(CCC(=O)c3ccccc3)cc2-c2ccc(Cl)cc2)cc1 [Compound 181]
The inhibition in vivo at 15 mg/kg of the first is lower: 6% for the first, 30% for the second.

Going from `CCC(O)CCc1cc(-c2ccc(Cl)cc2)n(-c2ccc(OC)cc2)n1` (stereo not shown) [Compound 177] to `CCC(=O)CCc1cc(-c2ccc(Cl)cc2)n(-c2ccc(OC)cc2)n1` [Compound 180], the inhibition in vivo at 15 mg/kg rises from 16% to 32%.

In the case of `COc1ccc(-n2nc(CCC(O)c3ccccc3)cc2-c2ccc(Cl)cc2)cc1` (stereo not shown) [Compound 178], the inhibition in vivo at 15 mg/kg is reported as 8%.

same assay, conditions: po, 336 h; 25 mpk p.o., rat; read-out: % INH. p.o. (percentage inhibition of pad swelling)

Work on `COc1ccc(-n2nc(CCCNO)cc2-c2ccc(Cl)cc2)cc1` [Compound 151, N-[3-[5-(4-Chlorophenyl)-1-(4-methoxyphenyl)-3-pyrazolyl]propyl]hydroxyl-amine] yielded an inhibition in vivo at 25 mg/kg of 42%.

same assay, conditions: po, 336 h; 40 mpk p.o., rat; read-out: % INH. p.o. (percentage inhibition of pad swelling)

`COc1ccc(-n2nc(CCC(=O)N(C)O)c(Br)c2-c2ccc(Cl)cc2)cc1` [Compound 148] gave an inhibition in vivo at 40 mg/kg of 15%.

tested on: cyclooxygenase (CO); test: not given; conditions: cited from earlier work

In the case of `COc1ccc2c(c1)c(CC(=O)O)c(C)n2C(=O)c1ccc(Cl)cc1` [indomethacin], the “inhibition of cyclooxygenase enzyme by NSAIDs (in words)” value is listed as “only inhibit the cyclooxygenase enzyme”.

tested on: bronchospasm / LTB4; test: Arachidonic acid-induced bronchospasm and LTB4 blood levels in anesthetized guinea pigs; assay type: in vivo; conditions: AA i.v. 10 mg/kg
Description: Intravenous administration of 10 mg/kg AA to anesthetized guinea pigs pretreated with indomethacin (10 mg/kg) and propranolol (0.1 mg/kg) results in a sustained bronchospasm which is associated with increased blood levels of LTB4. […] In the dog, intraarticular injection of rabbit anti-dog-dog IgG immune complexes into the knee joint results in an acute synovitis characterized by an influx of inflammatory cells into the joint space as well as an increase in synovial fluid levels of PGE2 and LTB4.

In the case of `COc1ccc2c(c1)c(CC(=O)O)c(C)n2C(=O)c1ccc(Cl)cc1` [indomethacin], the “effect on LTB4 levels (in words)” value is reported as “no effect”.

For `COc1ccc2c(c1)c(CC(=O)O)c(C)n2C(=O)c1ccc(Cl)cc1` [indomethacin], the “effect on bronchospasm (in words)” value was “no effect”.
